# Source: article PMC4914680 (Antimicrobial Agents and Chemotherapy, 2016)
# Read-outs that look alike come from different tables or passages of the source.
# Columns and labels:
# [1] = human, serum
# [2] = tested on: HIV-LAI envelope-pseudotyped RepRlucP373SΔenv virus; assay: Two-stage single-cycle pseudotype assay (HIV-1 entry assay); type: cell-based
# [3] = tested on: HIV-1 subtype D clinical isolates; assay: Drug susceptibility assay using clinical isolates in PBMCs; conditions: Human immunodeficiency virus 1, PBMC
# [4] = tested on: HIV-1 group O clinical isolates; assay: as above; conditions: Human immunodeficiency virus 1, PBMC
# [5] = target: HIV-1 integrase (Human immunodeficiency virus type 1 group M subtype B, UniProt P03366); assay: HIV-1 integrase inhibitor binding assay
# [6] = tested on: HIV-1 HXB2; assay: Multiple-cycle assay, laboratory strains; type: cell-based; conditions: Human immunodeficiency virus 1; HXB2, CXCR4, MT-2
# [7] = tested on: HIV-1 subtype G clinical isolates; assay: Drug susceptibility assay using clinical isolates in PBMCs; conditions: Human immunodeficiency virus 1, PBMC
# [8] = tested on: HIV-1 Bal; assay: Multiple-cycle assay, laboratory strains; type: cell-based; conditions: Human immunodeficiency virus 1, CCR5, PM1
# [9] = tested on: HIV-1 SF-2; assay: Multiple-cycle assay, laboratory strains; type: cell-based; conditions: Human immunodeficiency virus 1; SF-2, CXCR4, MT-2
# [10] = tested on: HIV-2 CBL-20; assay: Multiple-cycle assay, laboratory strains; type: cell-based; conditions: HIV-2 CBL-20, MT-2
# [11] = tested on: HIV-2 CBL-23; assay: Multiple-cycle assay, laboratory strains; type: cell-based; conditions: HIV-2 CBL-23, MT-2
# [12] = tested on: HIV-1 NL4-3; assay: Multiple-cycle assay, laboratory strains; type: cell-based; conditions: Human immunodeficiency virus 1, NL43; NL4-3, CXCR4, MT-2
# [13] = target: HIV-1 protease (Human immunodeficiency virus type 1 group M subtype B, UniProt P03366); assay: HIV-1 protease assay; type: biochemical
# [14] = tested on: HIV-1 MN; assay: Multiple-cycle assay, laboratory strains; type: cell-based; conditions: Human immunodeficiency virus 1, CXCR4, MT-2
# [15] = Human immunodeficiency virus 2, read-out: EC50
smiles,measurement,setting,value
C=C(C)[C@@H]1CC[C@]2(NCCN3CCS(=O)(=O)CC3)CC[C@]3(C)[C@H](CC[C@@H]4[C@@]5(C)CC=C(c6ccc(C(=O)O)cc6)C(C)(C)[C@@H]5CC[C@]43C)[C@@H]12 [BMS-955176],fraction unbound,[1],0.18
same,"inhibition of luciferase, compound added at stage 1 (virus production)",[2],inhibiting luciferase production only when added in the first stage
same,"inhibition of luciferase, compound added at stage 2 (infection)",[2],inhibiting luciferase production only when added in the first stage
same,EC50,[3]; read-out: Median EC50,6 nM
same,EC50,[3]; read-out: Range EC50,1 to 21 nM
same,EC50,"[4]; read-out: Mean EC50 ± SD, PBMCs, group O, 5 isolates",170 ± 240 nM
same,EC50,"[4]; read-out: Median EC50, PBMCs, group O, 5 isolates",30 nM
same,EC50,"[4]; read-out: Range EC50, PBMCs, group O, 5 isolates",1 to 552 nM
same,IC50,[5],> 15000 nM
same,EC50,[6],11 ± 2 nM
same,EC50,[7]; read-out: Mean EC50 ± SD,11 ± 4 nM
same,EC50,[7]; read-out: Median EC50,10 nM
same,EC50,[7]; read-out: Range EC50,8 to 15 nM
same,EC50,[8],0.7 ± 0.2 nM
same,EC50,[9],11 ± 1.5 nM
same,EC50,[10],completely resistant
same,EC50,[10]; [15],> 1200 nM
same,EC50,[11],completely resistant
same,EC50,[11]; [15],> 1200 nM
same,EC50,[12],4.7 ± 2.3 nM
same,IC50,[13],> 10000 nM
same,EC50,[14],0.9 ± 0.6 nM
